Assay results: patent US20260286306A1, “Culture Medium, Production Method, and Cell Preparation19155704” (National University Corporation Kumamoto University, priority 2023, published 2026)

What was measured:
[1] = tested on: EPCR High cell group (hematopoietic stem cells); assay: ex vivo culture of mouse EPCR High cell group for 4 days, flow cytometry and cell count; assay type: cell-based; conditions: for number of cells compared with the control: 4 days culture, FIG. 7(B); for proportion of EPCR High in hematopoietic stem cells (EPCR High phenotype): flow cytometry
Text: The expression of c-kit and EPCR in a hematopoietic stem cell fraction (lineage: CD150+, CD48−) isolated from a mouse by using flow cytometry was checked. Among the c-kit-positive and EPCR-positive cells, a cell group of the top 30% of the EPCR-positive cells was defined as an EPCR High cell group, and a cell group of the bottom 30% of the EPCR-positive cells was defined as an EPCR Low cell group (see FIG. 1). Each cell group was transplanted into a recipient mouse, and 20 weeks later, the proportion of cells derived from the transplanted stem cells was examined in the peripheral blood (PB). In addition, at the same time, the proportion of cells derived from the transplanted stem cells was examined in the hematopoietic stem cell fraction (L-ESLAM) in the bone marrow after 20 weeks of the transplantation. The experiment was carried out twice.
As shown in FIG. 5(A), α-ketoglutaric acid (αKG), which is an intermediate metabolite of the TCA cycle, is also produced from glutamic acid or the like, and then it is supplied to the TCA cycle. In addition, in the production of a-ketoglutaric acid from glutamic acid, two pathways of a transaminase pathway and a glutamate dehydrogenase pathway are used (see FIG. 5(B)). Therefore, the proportion of EPCR High in hematopoietic stem cells was determined in a case where the EPCR High cell group was cultured for 4 days by adding each of an inhibitor R162 (30 μM) of glutamate dehydrogenase and an inhibitor aminooxyacetic acid (AOA) (50 μM) of transaminase to the culture medium, and in a case where the content of […], which is the source of glutamic acid synthesis, was set to 1/100 (0.02 mM) in FIG. 5(A) (Low Neu.).
The above-described mouse EPCR High cell group was cultured for 4 days by adding EGCG (50 μM), which is another glutamate dehydrogenase inhibitor, to a culture medium.

[2] = tested on: recipient mouse; assay: transplantation of cultured cell groups into a recipient mouse, proportion of donor-derived cells; assay type: in vivo
Procedure: Mouse EPCR High cells were cultured for 4 days under the normal culture conditions or in the presence of R162, and 50 cells of each of an EPCR High cell group (Control) generated under the normal culture conditions, an EPCR Low cell group (Control), and an EPCR High cell group (R162) amplified in the presence of R162 were aliquoted and then transplanted into a recipient mouse. Then, after 4 weeks and 12 weeks, the proportion of cells derived from donor cells in the peripheral blood was examined.
Further, the EPCR High cells were cultured for 4 days under the normal culture conditions and cultured for 4 days in the presence of R162, and the EPCR High cell group generated under the normal culture conditions, the EPCR Low cell group, and the EPCR High cell group (R162) amplified in the presence of R162 were each transplanted into a recipient mouse. Then, 20 weeks later, the proportion of cells derived from donor cells was examined in the peripheral blood and the hematopoietic stem cell fraction in the bone marrow (L-ESLAM (BM)).

[3] = tested on: Human CD34+ bone marrow cells; assay: culture of human CD34+ bone marrow cells for 7 days, total cell number and flow cytometry; assay type: cell-based; conditions: R162 30 μM
Procedure: Human CD34^+ bone marrow cells (10,000 cells) were cultured for 7 days under normal culture conditions or in the presence of a glutamate dehydrogenase inhibitor R162 (30 μM), and then the total number of cells was analyzed. Then, the proportion of hematopoietic stem cells (lineage: CD34+CD38−CD90+cells) was analyzed using a flow cytometer, and from the results, the number of stem cells was estimated. FIG. 13 and FIG. 14 show the results. As shown in FIG. 14(A), it has been confirmed that the total number of cells is not changed by the presence of R162 as compared with the control, whereas as shown in FIG. 14(B), the ratio of stem cells after culturing is increased by the presence of R162.
The culture medium used for the ex vivo culture of human CD34+ bone marrow cells is a culture medium obtained by adding, to the RPMI medium, L-Alanin (4.45 mg/L), Zinc Sulfate Heptahydrate (0.432 mg/L), Cupric Sulfate Pentahydrate (0.0013 mg/L), Ferric Nitrate Nonahydrate (0.05 mg/L), Ferrous Sulfate Heptahydrate (0.417 mg/L), Linoleic acid (0.042 mg/L), Hypoxanthine (2.1 mg/L), Putrescine+2HCL (0.081 mg/L), Thioctic Acid (0.105 mg/L), Thymidine (0.365 mg/L), Sodium Pyruvate (55 mg/L), HEPES (1 mM), a penicillin-streptomycin mixed solution (Nacalai Tesque, Inc.: 26253-84) (1/100 capacity), Insulin-Transferrin-Selenium-Ethanolamine (Thermo Fisher Scientific, Inc.: 51500056) (1/100 capacity), and AlbuMAXtm I Lipid-Rich BSA (Thermo Fisher Scientific, Inc.: 11020021) (2%).

## NOCC(=O)O [AOA, aminooxyacetic acid]
[1]; AOA 50 μM
  number of cells compared with the control: significantly reduced

## O=C(O[C@@H]1Cc2c(O)cc(O)cc2O[C@@H]1c1cc(O)c(O)c(O)c1)c1cc(O)c(O)c(O)c1 [EGCG, epigallo catechin-3-gallate]
[1]; EGCG 50 μM in culture medium, 4 days, FIG. 15
  proportion of EPCR High in hematopoietic stem cells (EPCR High phenotype): phenotype of EPCR High is maintained

## C=CCc1ccc2c(c1O)C(=O)c1ccccc1C2=O [R162, 2-allyl-1-hydroxy-9,10-anthraquinone]
[2]; 50 EPCR High cells amplified 4 days in the presence of R162, transplanted, 4 weeks and 12 weeks, FIG. 8
  proportion of cells derived from donor cells in the peripheral blood (ability to reconstruct hematopoietic tissue): high ability to reconstruct hematopoietic tissue, which is equivalent to the EPCR High cell group (Control)
[2]; EPCR High cells amplified 4 days in the presence of R162, transplanted, 20 weeks, vs EPCR High and EPCR Low (Control), FIG. 12
  proportion of cells derived from donor cells in peripheral blood and bone marrow hematopoietic stem cell fraction (L-ESLAM (BM)): high ability to maintain the reconstructed hematopoiesis for a longer period of time
[1]; Mus musculus, Hematopoietic stem cell, 96 h, culture in the presence of R162 (30 μM), 4 days, read-out: increase in number of cells having the EPCR High phenotype compared with normal culture conditions
  fold induction at 30 µM: ~2
[1]; R162 30 μM in culture medium, 4 days, FIG. 6/7(A)
  proportion of EPCR High in hematopoietic stem cells (EPCR High phenotype): phenotype of EPCR High is maintained
[1]; R162 30 μM
  number of cells compared with the control: about the same level as that of the control
[3]; 7 days, 10,000 cells seeded, FIG. 14(A)
  total number of cells compared with the control: not changed
[3]; 7 days, flow cytometer, FIG. 14(B)
  ratio of stem cells (CD34+CD38−CD90+ cells) after culturing: increased
[3]; 7 days, estimated from total cell number and stem cell proportion
  number of stem cells compared with normal culture conditions: number of stem cells is increased
